# Source: patent US11180487B2, “Substituted cyanoindoline derivatives as NIK inhibitors” (Janssen Pharmaceutica NV, priority 2016, dated 2021)
# Read-outs that look alike come from different tables or passages of the source.
# Columns and labels:
# [1] = system: P-IKKα levels in L363 (NIK translocated multiple myeloma) cells; assay: Effect of compounds on P-IKKα levels in L363 cells (Mesoscale sandwich immuno-assay), Biological Assay B; format: cell-based, human; conditions: 2 hr treatment, averaged values, read-out: Inhibition of pIKKα_L-363 (IC50 (nM))
# Method in brief: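 P-IKKα in lysates quantified by Mesoscale sandwich immunoassay after 2 h compound exposure in 1% DMSO, duplicate wells, 8-point 1:3 series. Human L363 cells had been preincubated 24 h with BAFF (1 μg/ml stock). Blank (10 μM ADS125117) subtracted; IC50 fitted sigmoidally to % inhibition of control.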
# [2] = system: KMS12-BM (NIK WT) multiple myeloma cells; assay: Antiproliferative activity on KMS12-BM multiple myeloma cells (CellTiter-Glo, 96 hr), Biological Assay C; format: cell-based, human; conditions: averaged values, read-out: KMS-12 Proliferation inhibition (IC50 (nM))
# Method in brief: (§1)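 Growth read-out was CellTiter-Glo luminescence after 96 h compound exposure, given as percent of no-drug control after subtracting a blank of cells read at dosing. Compounds ran as 9-point serial 1:3 dilutions in 0.3% DMSO, duplicate wells, on JJN-3 (15000/well) or KMS12-BM (20000/well) cells in RPMI 1640/10% FCS.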
# [3] = biological target: recombinant human NF-kappaB-inducing kinase (NIK/MAP3K14) (Homo sapiens, UniProt Q99558); assay: Inhibition of auto-phosphorylation of recombinant human NIK/MAP3K14 activity (AlphaScreen), Biological Assay A; format: biochemical; conditions: averaged values over all measurements on all batches
# recombinant human NF-kappaB-inducing kinase (NIK/MAP3K14), sequence (Q99558 whole entry): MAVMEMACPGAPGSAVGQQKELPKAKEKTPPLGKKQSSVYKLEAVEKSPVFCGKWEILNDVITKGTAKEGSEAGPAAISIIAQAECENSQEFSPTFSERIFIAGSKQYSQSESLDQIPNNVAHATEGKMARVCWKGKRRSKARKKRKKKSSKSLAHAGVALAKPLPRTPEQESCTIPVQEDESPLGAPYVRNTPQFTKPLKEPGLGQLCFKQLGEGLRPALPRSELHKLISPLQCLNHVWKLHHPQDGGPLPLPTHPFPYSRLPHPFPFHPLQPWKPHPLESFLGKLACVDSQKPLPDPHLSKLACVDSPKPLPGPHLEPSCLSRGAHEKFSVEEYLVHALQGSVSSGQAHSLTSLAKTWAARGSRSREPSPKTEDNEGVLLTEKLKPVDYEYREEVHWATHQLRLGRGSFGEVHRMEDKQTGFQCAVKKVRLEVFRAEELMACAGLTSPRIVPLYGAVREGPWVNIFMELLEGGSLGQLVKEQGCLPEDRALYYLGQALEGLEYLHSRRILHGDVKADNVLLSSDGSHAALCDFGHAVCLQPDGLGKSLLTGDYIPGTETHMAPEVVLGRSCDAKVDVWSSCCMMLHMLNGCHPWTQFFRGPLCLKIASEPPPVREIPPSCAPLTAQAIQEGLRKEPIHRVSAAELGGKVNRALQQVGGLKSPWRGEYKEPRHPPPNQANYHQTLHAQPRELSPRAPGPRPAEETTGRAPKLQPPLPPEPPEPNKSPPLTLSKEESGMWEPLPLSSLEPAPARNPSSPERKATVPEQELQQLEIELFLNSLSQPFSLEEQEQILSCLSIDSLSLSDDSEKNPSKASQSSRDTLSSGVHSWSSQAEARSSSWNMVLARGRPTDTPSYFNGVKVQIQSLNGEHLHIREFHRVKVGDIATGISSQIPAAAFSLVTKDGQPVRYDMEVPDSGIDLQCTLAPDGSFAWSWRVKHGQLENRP
# Method in brief: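 AlphaScreen detection with anti-phospho-IKK Ser176/180 antibody plus Protein A acceptor/glutathione donor beads after 1 h, 25 °C reaction of 0.2 nM GST-tagged kinase, 25 μM ATP and compound. Buffer: 50 mM Tris pH 7.5, MgCl2, EGTA, DTT, vanadate; 1% DMSO. IC50 fitted sigmoidally to % inhibition.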
# [4] = system: JJN-3 (NIK translocated) multiple myeloma cells; assay: Antiproliferative activity on JJN-3 multiple myeloma cells (CellTiter-Glo, 96 hr), Biological Assay C; format: cell-based, human; conditions: JJN-3 (NIK translocated) cells, averaged values, read-out: JJN-3 Proliferation inhibition (IC50 (nM))
# Method in brief: as §1
"IC50 ([1]; Homo sapiens, L-363, 2 h) [nM]","IC50 ([2]; Homo sapiens, KMS-12-BM, 96 h) [nM]",IC50 [3] [nM],melting point [°C],"IC50 ([4]; Homo sapiens, JJN-3, 96 h) [nM]",IC50 [1] [nM],IC50 [2] [nM],IC50 [4] [nM],SMILES
2.4,> 10000,4.8,193,65,–,–,–,CCC(=O)NCCCc1cc(C)c(Nc2nccc(-c3cc(C#N)c4c(c3)[C@@](C)(CO)CN4)n2)cc1C#N [Compound 172]
1.5,~3980,6.2,297,14,–,–,–,[2H]C([2H])([2H])N1CCN(C(=O)c2cc(C#N)cc(Nc3nccc(-c4cc(C#N)c5c(c4)[C@@](C)(CO)CN5)n3)c2C)CC1 [Compound 204]
32.4,~3160,7.9,223,96,–,–,–,C[C@]1(CO)CNc2c(C#N)cc(-c3ccnc(Nc4cc(C#N)ccc4CN4CC(F)(F)C4)n3)cc21 [Compound 227]
1.4,> 10000,2.2,201,68,–,–,–,COc1cc(S(C)(=O)=O)ccc1Nc1nccc(-c2cc(C#N)c3c(c2)[C@@](C)(CO)CN3)n1 [Compound 73]
18.2,1230,1.8,160,~246,–,–,–,COc1cc(P(C)(C)=O)ccc1Nc1nccc(-c2cc(C#N)c3c(c2)[C@@](C)(CO)CN3)n1 [Compound 64]
6,~5250,3.6,224,1120,–,–,–,CNC(=O)c1cc(Nc2nccc(-c3cc(C#N)c4c(c3)[C@@](C)(CO)CN4)n2)c(F)cc1F [Compound 165]
7.7,> 10000,3.5,218,467,–,–,–,CNC(=O)c1cc(Nc2nccc(-c3cc(C#N)c4c(c3)[C@@](C)(CO)CN4)n2)c(C)cc1F [Compound 155]
37.2,> 10000,9.1,169,490,–,–,–,COCCOc1ccc(Cl)cc1Nc1nccc(-c2cc(C#N)c3c(c2)[C@@](C)(CO)CN3)n1 [Compound 45]
19.5,> 10000,5.4,170,120,–,–,–,CC1(CO)CNc2c(C#N)cc(-c3ccnc(Nc4cc(C#N)ccc4CN4CC(F)C4)n3)cc21 (stereo not drawn) [Compound 228]
33.1,> 10000,3.5,150,437,–,–,–,Cc1ccc(C(=O)NC2CCN(C)C2)cc1Nc1nccc(-c2cc(C#N)c3c(c2)[C@@](C)(CO)CN3)n1 (mixture of isomers) [Compound 163]
–,–,1.5,264,–,2.2,9770,167,Cc1ccc(C#N)cc1Nc1nccc(-c2cc(C#N)c3c(c2)[C@@](C)(CO)CN3)n1 [Compound 130]
64.6,> 10000,11.2,206,4790,–,–,–,Cc1ccc(C(=O)N(C)C)cc1Nc1nccc(-c2cc(C#N)c3c(c2)[C@@](C)(CO)CN3)n1 [Compound 160]
56.2,~9120,51.3,180,550,–,–,–,Cc1ccc(C#N)cc1Nc1nccc(-c2cc(C#N)c3c(c2)[C@@](C)(COC(=O)[C@H](N)Cc2ccccc2)CN3)n1 [Compound 140]
5,> 10000,4.2,304,1070,–,–,–,Cc1ccc(C#N)cc1Nc1ncnc(-c2cc(C#N)c3c(c2)[C@@](C)(CO)CN3)n1 [Compound 213]
20.9,> 10000,251,156,407,–,–,–,CC(=O)OC[C@@]1(C)CNc2c(C#N)cc(-c3ccnc(Nc4cc(C#N)ccc4OCC4CC4)n3)cc21 [Compound 128]
1.8,~5890,6.6,294,14,–,–,–,Cc1c(Nc2nccc(-c3cc(C#N)c4c(c3)[C@@](C)(CO)CN4)n2)cc(C#N)cc1C(=O)N1CCN(C)CC1 [Compound 203]
1.4,479,3.6,193,17,–,–,–,Cc1c(CN2CC(C)OC(C)C2)cc(C#N)cc1Nc1nccc(-c2cc(C#N)c3c(c2)[C@@](C)(CO)CN3)n1 (stereo partly drawn) [Compound 194]

"IC50 ([1]; Homo sapiens, L-363, 2 h) [nM]","IC50 ([2]; Homo sapiens, KMS-12-BM, 96 h) [nM]",IC50 [3] [nM],melting point [°C],"IC50 ([4]; Homo sapiens, JJN-3, 96 h) [nM]",IC50 [1] [nM],IC50 [2] [nM],IC50 [4] [nM],SMILES
14.5,> 10000,10.7,246,~1410,–,–,–,"Cc1cc(F)c(C(=O)NC2CCOC2)cc1Nc1nccc(-c2cc(C#N)c3c(c2)[C@@](C)(CO)CN3)n1 (single isomer, unassigned) [Compound 168]"
19.5,> 10000,20,181,195,–,–,–,C[C@]1(CO)CNc2c(C#N)cc(-c3ccnc(Nc4cc(C#N)ccc4CNC4CC4)n3)cc21 [Compound 225]
–,–,2.2,188,–,1.4,1290,58,Cc1cc(C2CCCN(C)C2)c(C#N)cc1Nc1nccc(-c2cc(C#N)c3c(c2)[C@@](C)(CO)CN3)n1 (stereo partly drawn) [Compound 179]
19.1,> 10000,2.8,134,178,–,–,–,C[C@]1(CO)CNc2c(C#N)cc(-c3ccnc(Nc4cc(C#N)ccc4CCCCN)n3)cc21 [Compound 184]
–,> 10000,12,138,–,2.2,–,3630,Cc1ccc(C#N)cc1Nc1nccc(-c2cc(C#N)c3c(c2)[C@@](C)(COC(=O)CC(=O)O)CN3)n1 [Compound 142a]
11.2,302,2.5,259,44,–,–,–,CCS(=O)(=O)N(C)c1cccc(Nc2nccc(-c3cc(C#N)c4c(c3)C(C)(CO)CN4)n2)c1 (stereo not drawn) [Compound 240]
15.5,550,15.5,162,258,–,–,–,CC(C)Oc1ccc(C#N)cc1Nc1nccc(-c2cc(C#N)c3c(c2)[C@@](C)(CO)CN3)n1 [Compound 16]
~6.9,~8910,112,200,151,–,–,–,Cc1ccc(C#N)cc1Nc1nccc(-c2cc(C#N)c3c(c2)[C@@](C)(COC(=O)C(C)C)CN3)n1 [Compound 126]
–,–,7.6,239,–,19.1,6170,562,"Cc1cc(F)c(C(=O)NC2CCN(C)C2)cc1Nc1nccc(-c2cc(C#N)c3c(c2)[C@@](C)(CO)CN3)n1 (single isomer, unassigned) [Compound 167]"
21.4,> 10000,5.5,162,170,–,–,–,CC1(COc2ccc(C#N)cc2Nc2nccc(-c3cc(C#N)c4c(c3)[C@@](C)(CO)CN4)n2)COC1 [Compound 14]
5.4,> 10000,2.6,190,54,–,–,–,Cc1cc(-c2cnn(C)c2)c(C#N)cc1Nc1nccc(-c2cc(C#N)c3c(c2)[C@@](C)(CO)CN3)n1 [Compound 188]
–,–,1.4,190,–,3.2,~7940,330,Cc1ccc(C#N)cc1Nc1nccc(-c2cc(C#N)c3c(c2)[C@@](C)(CO)CN3)n1 [Compound 129]
–,–,1.3,174,–,4.7,> 10000,324,Cc1ccc(C#N)cc1Nc1nccc(-c2cc(C#N)c3c(c2)[C@@](C)(CO)CN3)n1 [Compound 131]
2,> 10000,3.5,211,71,–,–,–,Cc1cc(CCN2CC(F)C2)c(C#N)cc1Nc1nccc(-c2cc(C#N)c3c(c2)[C@@](C)(CO)CN3)n1 [Compound 174]
16.2,~1150,4,124,182,–,–,–,COCCCc1ccc(C#N)cc1Nc1nccc(-c2cc(C#N)c3c(c2)[C@@](C)(CO)CN3)n1 [Compound 74]
22.4,> 10000,7.6,207,251,–,–,–,C[C@]1(CO)CNc2c(C#N)cc(-c3ccnc(Nc4cc(C#N)ccc4CCN4CC(F)C4)n3)cc21 [Compound 229]
